This note sets out measurements from patent US9340590B2 (priority 2011, dated 2016).

Holding throughout (assay): cell-based
The target in experiment [1] is hNav1.7 (Homo sapiens, UniProt Q15858). Format: cell-based. The following applies: IonWorks Quattro. On the technique in general: In patch-clamp work, channel activity is measured electrically.
Experiment [2] addresses hNav1.3 (Homo sapiens, UniProt Q9NY46). To be noted: IonWorks Quattro, read-out: IWQ Use Nav1.3.
In experiment [3] the target is hNav1.5 (Homo sapiens, UniProt Q14524). To be noted: IonWorks Quattro, read-out: IWQ Use Nav1.5.
Setting [4] is: use-dependent protocol, hNav1.7, read-out: IWQ Use Nav1.7.
Setting [5] is: use-dependent protocol, hNav1.3.
Setting [6] is: use-dependent protocol, hNav1.5.

Like-named read-outs stand apart in the source and are kept apart here. Positions of bridges follow the written chain, without caps; N, C: chain ends. Non-standard residues stand in square brackets, D forms with d. Residues, ends and D or L forms follow the SMILES beside them. *: point of attachment. Pent4ynoyl = C#CCCC(=O)*; Nva = CCC[C@H](N)C(=O)O; Abu = CC[C@H](N)C(=O)O

hNav1.5, sequence (Q14524 whole entry, looked up): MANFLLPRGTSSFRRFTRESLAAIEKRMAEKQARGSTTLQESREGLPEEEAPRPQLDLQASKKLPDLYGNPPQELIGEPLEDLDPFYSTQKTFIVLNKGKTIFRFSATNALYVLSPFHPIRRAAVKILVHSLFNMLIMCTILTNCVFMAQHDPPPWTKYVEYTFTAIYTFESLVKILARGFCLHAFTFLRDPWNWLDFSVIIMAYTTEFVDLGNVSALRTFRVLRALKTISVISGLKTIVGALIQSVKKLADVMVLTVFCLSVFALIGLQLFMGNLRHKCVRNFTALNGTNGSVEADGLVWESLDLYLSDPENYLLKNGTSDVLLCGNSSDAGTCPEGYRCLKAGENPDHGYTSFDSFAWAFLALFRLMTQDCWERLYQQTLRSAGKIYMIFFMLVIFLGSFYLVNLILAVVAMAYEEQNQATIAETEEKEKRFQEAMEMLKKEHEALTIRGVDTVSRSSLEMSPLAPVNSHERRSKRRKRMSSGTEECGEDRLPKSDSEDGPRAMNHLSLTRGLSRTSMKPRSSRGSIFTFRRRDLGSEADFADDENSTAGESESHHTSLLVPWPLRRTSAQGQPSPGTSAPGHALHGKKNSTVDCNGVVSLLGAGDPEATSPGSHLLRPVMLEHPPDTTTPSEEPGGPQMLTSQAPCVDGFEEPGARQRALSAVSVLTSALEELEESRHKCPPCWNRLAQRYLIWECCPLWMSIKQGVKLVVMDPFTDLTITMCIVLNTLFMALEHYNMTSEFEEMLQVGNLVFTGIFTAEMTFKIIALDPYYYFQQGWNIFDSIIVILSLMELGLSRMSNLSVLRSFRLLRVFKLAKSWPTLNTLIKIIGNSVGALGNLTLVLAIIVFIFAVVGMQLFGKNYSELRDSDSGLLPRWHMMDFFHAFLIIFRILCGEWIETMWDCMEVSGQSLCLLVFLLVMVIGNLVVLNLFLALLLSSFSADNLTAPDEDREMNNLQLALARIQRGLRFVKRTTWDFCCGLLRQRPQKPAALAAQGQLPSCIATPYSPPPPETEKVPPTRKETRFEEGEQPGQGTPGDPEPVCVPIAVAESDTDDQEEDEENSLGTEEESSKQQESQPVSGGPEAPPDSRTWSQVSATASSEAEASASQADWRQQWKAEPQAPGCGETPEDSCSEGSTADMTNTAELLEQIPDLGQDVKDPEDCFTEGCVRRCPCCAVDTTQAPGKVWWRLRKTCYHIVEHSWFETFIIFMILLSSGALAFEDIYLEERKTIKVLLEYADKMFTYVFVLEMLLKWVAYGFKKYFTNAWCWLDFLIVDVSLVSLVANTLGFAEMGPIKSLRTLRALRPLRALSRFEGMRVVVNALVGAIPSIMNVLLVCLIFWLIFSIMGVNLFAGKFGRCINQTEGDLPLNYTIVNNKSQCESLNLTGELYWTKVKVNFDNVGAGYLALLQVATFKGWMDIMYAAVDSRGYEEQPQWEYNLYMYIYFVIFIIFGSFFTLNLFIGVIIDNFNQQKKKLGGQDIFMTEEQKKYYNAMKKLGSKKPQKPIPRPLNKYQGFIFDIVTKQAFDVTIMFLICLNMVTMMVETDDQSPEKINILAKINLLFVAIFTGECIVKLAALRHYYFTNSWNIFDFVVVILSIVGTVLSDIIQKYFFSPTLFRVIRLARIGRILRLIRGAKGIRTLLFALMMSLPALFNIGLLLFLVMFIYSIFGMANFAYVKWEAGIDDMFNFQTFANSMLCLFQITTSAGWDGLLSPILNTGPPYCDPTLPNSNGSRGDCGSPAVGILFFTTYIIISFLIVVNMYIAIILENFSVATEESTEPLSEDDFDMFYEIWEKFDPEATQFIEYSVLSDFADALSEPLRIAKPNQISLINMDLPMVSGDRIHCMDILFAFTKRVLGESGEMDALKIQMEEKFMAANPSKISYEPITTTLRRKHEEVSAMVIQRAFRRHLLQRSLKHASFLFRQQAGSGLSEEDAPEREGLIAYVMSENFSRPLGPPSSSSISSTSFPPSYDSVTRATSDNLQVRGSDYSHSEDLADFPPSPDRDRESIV
hNav1.7, sequence (Q15858 whole entry, looked up): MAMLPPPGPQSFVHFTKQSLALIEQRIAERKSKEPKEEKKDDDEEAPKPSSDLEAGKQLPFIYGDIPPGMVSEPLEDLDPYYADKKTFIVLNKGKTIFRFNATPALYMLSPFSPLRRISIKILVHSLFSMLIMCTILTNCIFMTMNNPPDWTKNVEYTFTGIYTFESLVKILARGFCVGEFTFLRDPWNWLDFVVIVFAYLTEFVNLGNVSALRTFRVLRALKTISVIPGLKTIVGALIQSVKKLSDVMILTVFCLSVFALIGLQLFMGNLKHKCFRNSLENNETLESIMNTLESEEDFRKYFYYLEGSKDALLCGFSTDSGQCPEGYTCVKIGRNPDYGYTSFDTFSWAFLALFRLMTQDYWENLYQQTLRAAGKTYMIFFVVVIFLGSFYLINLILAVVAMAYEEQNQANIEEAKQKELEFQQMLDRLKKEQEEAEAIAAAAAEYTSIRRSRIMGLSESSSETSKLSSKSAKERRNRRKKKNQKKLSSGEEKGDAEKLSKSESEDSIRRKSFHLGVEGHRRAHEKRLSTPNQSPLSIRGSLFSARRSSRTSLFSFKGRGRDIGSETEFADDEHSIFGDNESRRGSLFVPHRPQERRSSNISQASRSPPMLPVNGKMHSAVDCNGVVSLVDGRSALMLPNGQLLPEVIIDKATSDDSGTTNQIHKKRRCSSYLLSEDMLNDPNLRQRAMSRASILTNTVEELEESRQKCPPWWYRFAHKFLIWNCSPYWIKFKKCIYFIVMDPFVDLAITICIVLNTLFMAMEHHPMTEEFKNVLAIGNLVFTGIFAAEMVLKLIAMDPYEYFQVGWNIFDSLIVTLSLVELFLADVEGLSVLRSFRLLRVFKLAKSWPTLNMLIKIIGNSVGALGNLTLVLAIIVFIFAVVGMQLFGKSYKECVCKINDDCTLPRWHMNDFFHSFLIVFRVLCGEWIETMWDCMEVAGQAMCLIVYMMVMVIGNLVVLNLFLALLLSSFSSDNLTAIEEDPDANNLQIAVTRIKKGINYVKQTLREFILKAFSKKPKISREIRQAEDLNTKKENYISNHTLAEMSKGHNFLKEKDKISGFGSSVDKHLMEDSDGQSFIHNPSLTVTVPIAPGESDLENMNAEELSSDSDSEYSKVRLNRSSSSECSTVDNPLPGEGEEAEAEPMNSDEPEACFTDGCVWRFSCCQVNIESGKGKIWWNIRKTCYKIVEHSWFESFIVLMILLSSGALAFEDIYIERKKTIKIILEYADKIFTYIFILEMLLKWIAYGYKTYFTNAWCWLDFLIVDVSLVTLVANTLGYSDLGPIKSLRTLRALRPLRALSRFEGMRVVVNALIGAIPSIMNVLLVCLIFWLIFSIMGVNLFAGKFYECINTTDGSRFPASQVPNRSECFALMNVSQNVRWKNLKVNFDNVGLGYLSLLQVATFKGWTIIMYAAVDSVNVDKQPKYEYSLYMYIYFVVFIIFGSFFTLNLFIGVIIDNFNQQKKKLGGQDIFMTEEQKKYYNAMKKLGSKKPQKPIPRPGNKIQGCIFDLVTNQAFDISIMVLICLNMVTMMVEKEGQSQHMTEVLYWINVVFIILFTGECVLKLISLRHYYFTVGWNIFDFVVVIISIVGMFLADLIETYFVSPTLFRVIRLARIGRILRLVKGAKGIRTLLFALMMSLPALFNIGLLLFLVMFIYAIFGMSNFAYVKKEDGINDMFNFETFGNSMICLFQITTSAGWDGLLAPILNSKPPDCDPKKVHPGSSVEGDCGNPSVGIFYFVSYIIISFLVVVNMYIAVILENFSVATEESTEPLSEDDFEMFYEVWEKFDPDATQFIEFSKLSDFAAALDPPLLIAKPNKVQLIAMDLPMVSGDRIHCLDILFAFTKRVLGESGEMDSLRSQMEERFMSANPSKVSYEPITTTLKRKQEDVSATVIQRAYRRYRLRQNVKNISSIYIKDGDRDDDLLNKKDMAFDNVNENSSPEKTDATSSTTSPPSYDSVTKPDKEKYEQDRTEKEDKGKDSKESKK

As for `CC[C@H](C)[C@@H]1NC(=O)[C@@H]2CSSC[C@@H]3NC(=O)[C@H](C(C)C)NC(=O)[C@H](CC(C)C)NC(=O)[C@H](CC(N)=O)NC(=O)[C@@H]4CCCN4C(=O)[C@H](CCCNC(=N)N)NC(=O)[C@H](CSSC[C@H](NC(=O)[C@@H](N)CC(=O)O)C(=O)N[C@@H](CC(C)C)C(=O)NCC(=O)N[C@@H](C(C)C)C(=O)N[C@@H](CCSC)C(=O)N[C@@H](CCCNC(=N)N)C(=O)N[C@@H](CCCCN)C(=O)N2)NC(=O)[C@H](CSSC[C@@H](C(=O)N[C@@H](CCCCN)C(=O)N[C@@H](Cc2ccc(O)cc2)C(=O)N[C@H](C(=O)N[C@@H](Cc2ccccc2)C(N)=O)C(C)C)NC(=O)[C@H](Cc2c[nH]c4ccccc24)NC(=O)[C@H](CCC(=O)O)NC(=O)[C@H](Cc2c[nH]cn2)NC(=O)[C@H]([C@@H](C)O)NC(=O)[C@H](CCCNC(=N)N)NC(=O)[C@H](CO)NC3=O)NC(=O)[C@H](CCCCN)NC(=O)[C@H](CC(=O)O)NC(=O)[C@H](CC(N)=O)NC(=O)[C@H](CC(=O)O)NC(=O)[C@@H]2CCCN2C1=O` [compound 704] (H-DCLGVMRKCIPDNDKCCRPNLVCSRTHEWCKYVF-NH2; disulfide 2-17, 9-23, 16-30), the IC50 in experiment [1] (setting [4]) was 990 nM; in experiment [2] (setting [5]), greater than 5000 nM; in experiment [3] (setting [6]), 49000 nM.

Consider `CC[C@H](C)[C@@H]1NC(=O)[C@@H]2CSSC[C@@H]3NC(=O)[C@H](C(C)C)NC(=O)[C@H](CC(C)C)NC(=O)[C@H](CC(N)=O)NC(=O)[C@@H]4CCCN4C(=O)[C@H](CCCNC(=N)N)NC(=O)[C@H](CSSC[C@H](NC(=O)[C@@H](N)CC(=O)O)C(=O)N[C@@H](CC(C)C)C(=O)NCC(=O)N[C@@H](C4CCCCC4)C(=O)N[C@@H](CCSC)C(=O)N[C@@H](CCCNC(=N)N)C(=O)N[C@@H](CCCCN)C(=O)N2)NC(=O)[C@H](CSSC[C@@H](C(=O)N[C@@H](CCCCN)C(=O)N[C@@H](Cc2ccc(O)cc2)C(=O)N[C@H](C(=O)N[C@@H](Cc2ccccc2)C(N)=O)C(C)C)NC(=O)[C@H](Cc2c[nH]c4ccccc24)NC(=O)[C@H](CCCCN)NC(=O)[C@H](Cc2cnc[nH]2)NC(=O)[C@H]([C@@H](C)O)NC(=O)[C@H](CCCNC(=N)N)NC(=O)[C@H](CO)NC3=O)NC(=O)[C@H](CCCCN)NC(=O)[C@H](CC(=O)O)NC(=O)[C@H](CC(N)=O)NC(=O)[C@H](CC(=O)O)NC(=O)[C@@H]2CCCN2C1=O` [compound 684], for which the values for the IC50 in experiment [1] (setting [4]), in experiment [2] (setting [5]) and in experiment [3] (setting [6]) were 130 nM, 360 nM and greater than 5000 nM, respectively.

As for `CC[C@H](C)[C@@H]1NC(=O)[C@@H]2CSSC[C@@H]3NC(=O)[C@H](C(C)C)NC(=O)[C@H](CC(C)C)NC(=O)[C@H](CC(N)=O)NC(=O)[C@@H]4CCCN4C(=O)[C@H](CCCNC(=N)N)NC(=O)[C@H](CSSC[C@H](NC(=O)[C@@H](N)CC(=O)O)C(=O)N[C@@H](CC(C)C)C(=O)NCC(=O)N[C@@H](Cc4ccccc4)C(=O)N[C@@H](CCSC)C(=O)N[C@@H](CCCNC(=N)N)C(=O)N[C@@H](CCCCN)C(=O)N2)NC(=O)[C@H](CSSC[C@@H](C(=O)N[C@@H](CCCCN)C(=O)N[C@@H](Cc2ccc(O)cc2)C(=O)N[C@H](C(=O)N[C@@H](Cc2ccccc2)C(=O)N[C@@H](CCCCN)C(N)=O)C(C)C)NC(=O)[C@H](Cc2c[nH]c4ccccc24)NC(=O)[C@H](CCCCN)NC(=O)[C@H](Cc2c[nH]cn2)NC(=O)[C@H]([C@@H](C)O)NC(=O)[C@H](CCCNC(=N)N)NC(=O)[C@H](CO)NC3=O)NC(=O)[C@H](CCCCN)NC(=O)[C@H](CC(=O)O)NC(=O)[C@H](CC(N)=O)NC(=O)[C@H](CC(=O)O)NC(=O)[C@@H]2CCCN2C1=O` [compound 60], the IC50 in experiment [1] (use-dependent, […], read-out: IWQ Use Nav1.7 (μm)) was determined as 590 nM; in experiment [2] (use-dependent, […]), 210 nM; in experiment [3] (use-dependent, […]), 12500 nM.

Turning to `C#CCCC(=O)N[C@@H](CC(=O)O)C(=O)N[C@H]1CSSC[C@@H]2NC(=O)[C@@H]3CSSC[C@@H](C(=O)N[C@@H](CCCCN)C(=O)N[C@@H](Cc4ccc(O)cc4)C(=O)N[C@H](C(=O)N[C@@H](Cc4ccccc4)C(N)=O)C(C)C)NC(=O)[C@H](Cc4c[nH]c5ccccc45)NC(=O)[C@H](CCCNC(=N)N)NC(=O)[C@H](Cc4c[nH]cn4)NC(=O)[C@H]([C@@H](C)O)NC(=O)[C@H](CCCNC(=N)N)NC(=O)[C@H](CO)NC(=O)[C@H](CSSC[C@H](NC(=O)[C@H](CCCCN)NC(=O)[C@H](CCCNC(=N)N)NC(=O)[C@H](CC(C)C)NC(=O)[C@H](CCC)NC(=O)CNC(=O)[C@H](CC(C)C)NC1=O)C(=O)N[C@@H]([C@@H](C)CC)C(=O)N1CCC[C@H]1C(=O)N[C@@H](CC(=O)O)C(=O)N[C@@H](CC)C(=O)N[C@@H](CC(=O)O)C(=O)N[C@@H](CCCCN)C(=O)N3)NC(=O)[C@H](C(C)C)NC(=O)[C@H](CC(C)C)NC(=O)[C@H](CC(N)=O)NC(=O)[C@@H]1CCCN1C(=O)[C@H](CCCNC(=N)N)NC2=O` [compound 759] (Pent4ynoyl-DCLG[Nva]LRKCIPD[Abu]DKCCRPNLVCSRTHRWCKYVF-NH2; disulfide 2-17, 9-23, 16-30), the IC50 in experiment [1] (use-dependent block, hNav1.7, read-out: IWQ Use Nav1.7) is 100 nM; in experiment [2] (use-dependent block, hNav1.3), 230 nM; in experiment [3] (use-dependent block, hNav1.5), 46200 nM.

`CC[C@H](C)[C@@H]1NC(=O)[C@@H]2CSSC[C@@H]3NC(=O)[C@H](Cc4ccc(O)cc4)NC(=O)[C@H](CC(C)C)NC(=O)[C@H](CC(N)=O)NC(=O)[C@@H]4CCCN4C(=O)[C@H](CCCNC(=N)N)NC(=O)[C@H](CSSC[C@H](NC(=O)[C@@H](N)CC(=O)O)C(=O)N[C@@H](CC(C)C)C(=O)NCC(=O)N[C@@H](Cc4ccccc4)C(=O)N[C@@H](CCSC)C(=O)N[C@@H](CCCNC(=N)N)C(=O)N[C@@H](CCCCN)C(=O)N2)NC(=O)[C@H](CSSC[C@@H](C(=O)N[C@@H](CCCCN)C(=O)N[C@@H](Cc2ccc(O)cc2)C(=O)N[C@H](C(=O)N[C@@H](Cc2ccccc2)C(N)=O)C(C)C)NC(=O)[C@H](Cc2c[nH]c4ccccc24)NC(=O)[C@H](CCCCN)NC(=O)[C@H](Cc2c[nH]cn2)NC(=O)[C@H]([C@@H](C)O)NC(=O)[C@H](CCCNC(=N)N)NC(=O)[C@H](CO)NC3=O)NC(=O)[C@H](CCCCN)NC(=O)[C@H](CC(=O)O)NC(=O)[C@H](CC(N)=O)NC(=O)[C@H](CC(=O)O)NC(=O)[C@@H]2CCCN2C1=O` [compound 331] (H-DCLGFMRKCIPDNDKCCRPNLYCSRTHKWCKYVF-NH2; disulfide 2-17, 9-23, 16-30): the IC50 in experiment [1] (Use, read-out: IWQ Use Nav1.7) came to 560 nM; in experiment [2] (Use), 500 nM; in experiment [3] (Use) it was 4260 nM.

For the compound `CSCC[C@@H]1NC(=O)[C@H](C(C)C)NC(=O)CNC(=O)[C@H](CC(C)C)NC(=O)[C@@H](NC(=O)[C@@H](N)CC(=O)O)CSSC[C@@H]2NC(=O)[C@@H]3CSSC[C@@H](C(=O)N[C@@H](CCCCN)C(=O)N[C@@H](Cc4ccc(O)cc4)C(=O)N[C@H](C(=O)N[C@@H](Cc4ccccc4)C(N)=O)C(C)C)NC(=O)[C@H](Cc4c[nH]c5ccccc45)NC(=O)[C@H](CCCCN)NC(=O)[C@H](Cc4c[nH]cn4)NC(=O)[C@H]([C@@H](C)O)NC(=O)[C@H](CCCNC(=N)N)NC(=O)[C@H](CO)NC(=O)[C@H](CSSC[C@H](NC(=O)[C@H](CCCCN)NC(=O)[C@H](CCCNC(=N)N)NC1=O)C(=O)N[C@@H](CC(=O)O)C(=O)N1CCC[C@H]1C(=O)N[C@@H](CCC(=O)O)C(=O)N[C@@H](CC(N)=O)C(=O)N[C@@H](CC(=O)O)C(=O)N[C@@H](CCCCN)C(=O)N3)NC(=O)[C@H](C(C)C)NC(=O)[C@H](CC(C)C)NC(=O)[C@H](CC(N)=O)NC(=O)[C@@H]1CCCN1C(=O)[C@H](CCCNC(=N)N)NC2=O` [compound 712] (H-DCLGVMRKCDPENDKCCRPNLVCSRTHKWCKYVF-NH2; disulfide 2-17, 9-23, 16-30), the IC50 was 460 nM in experiment [1] (setting [4]), 1700 nM in experiment [2] (setting [5]) and 34000 nM in experiment [3] (setting [6]).

Consider `CC[C@H](C)[C@@H]1NC(=O)[C@@H]2CSSC[C@@H]3NC(=O)[C@H](C(C)C)NC(=O)[C@H](CC(C)C)NC(=O)[C@H](CC(N)=O)NC(=O)[C@@H]4CCCN4C(=O)[C@H](CCCNC(=N)N)NC(=O)[C@H](CSSC[C@H](NC(=O)[C@@H](N)CC(=O)O)C(=O)N[C@@H](CC(C)C)C(=O)NCC(=O)N[C@@H](Cc4ccccc4)C(=O)N[C@@H](CCSC)C(=O)N[C@@H](CCCNC(=N)N)C(=O)N[C@@H](CCCCN)C(=O)N2)NC(=O)[C@H](CSSC[C@@H](C(=O)N[C@@H](CCCCN)C(=O)N[C@@H](Cc2ccc(O)cc2)C(=O)N[C@H](C(=O)N[C@@H](Cc2ccccc2)C(N)=O)C(C)C)NC(=O)[C@H](Cc2c[nH]c4ccccc24)NC(=O)[C@H](CCCCN)NC(=O)[C@H](Cc2cnc[nH]2)NC(=O)[C@H]([C@@H](C)O)NC(=O)[C@H](CCCNC(=N)N)NC(=O)[C@H](CO)NC3=O)NC(=O)[C@H](CCCCN)NC(=O)[C@H](CC(=O)O)NC(=O)[C@H](C)NC(=O)[C@H](CC(=O)O)NC(=O)[C@@H]2CCCN2C1=O` [compound 5] (H-DCLGFMRKCIPDADKCCRPNLVCSRTHKWCKYVF-NH2; disulfide 2-17, 9-23, 16-30), for which the IC50 in experiment [1] (Use, read-out: IWQ Use Nav1.7) is 170 nM; in experiment [2] (Use), 160 nM; in experiment [3] (Use) it was 8150 nM.
